Laboratory results taken from patent US8828954B2, “Use for scopolin and derivatives thereof” (Yonsei University Technology Holdings, Inc., priority 2010, dated 2014).
Marks after values point to notes of the source that are not given here.

What was measured:
3T3-L1 cells = assay: Inhibition of adipocyte differentiation in 3T3-L1 cells (Oil Red O staining); format: cell-based, mouse; settings: scopolin 0.1, 1, 10, 50 and 100 μM, 14 days, FIG. 1
Procedure: Mouse adipocyte cell line (3T3-L1) was used to investigate the effect of scopolin on differentiation and growth of adipocytes. The preadipocytes, 3T3-L1 cells, were seeded on a 12-well plate and cultured to confluency using Dulbecco's modified Eagle's medium (DMEM) containing 1% penicillin-streptomycin, 1% non-essential amino acid and 10% fatal bovine serum (FBS), in a 5% CO2 incubator at 37° C. The 3T3-L1 cells grown to confluency were cultured for 2 days in MDI medium containing 0.5 mM isobutylmethylxanthine, 1 μM dexamethasone and 1 μg/mL insulin to differentiate them into differention adipocytes. Then, the cells were further cultivated in DMEM containing 1 μg/mL insulin to differentiate them into mature adipocytes. The cells were further cultured for 10 more days while replacing DMEM every other day to obtain fully differentiated adipocytes.
From the first day when MDI was added to the 3T3-L1 cells, scopolin was treated at concentrations of 0.1, 1, 10, 50 and 100 μM with 2-day intervals. Scopolin was used after being dissolved in DMSO. Only DMSO was added to the negative control group. […] In order to measure the level of triglyceride contained in the differentiated 3T3-L1 cells, the stained lipid droplets were dissolved in 1 mL of isobutanol and optical density (OD) value was measured at 600 nm.

[1] = Body weight and visceral fat weight in high-fat diet fed mice, 10 weeks; format: in vivo, mouse; settings: 0.02% scopolin in high-fat diet
Procedure: (§1) The obesity-inducing control diet used in the present test was high-fat diet (HFD: 40% fat calorie, 17 g lard+3% corn oil/100 g diet). Diets supplemented with scopolin had the same composition as HF, except that each derivative was included at 0.02%. The diabetic drug metformin was added at 0.1% or the hyperlipidemic drug atorvastatin was added at 0.01% to HFD as controls. The normal diet (ND) was prepared according to the AIN-76 rodent diet composition (American Institute of Nutrition, Report of the American Institute of Nutrition ad hoc committee on standards for nutritional studies. J. Nutr., 107: 1340-1348, (1977)) (Table 1).
(§2) 5-week-old male […] mice (Orient, Korea) were accustomed to the laboratory environment for 1 week while feeding solid feed. Then, they were randomly divided into high-fat diet and test groups and bred for a total of 10 weeks. The diet was given between 10 and 11 a.m. every day together with water. Food intake was measured every day and body weight was measured once a week. In order to avoid transient body weight increase after feed intake, body weight was measured 2 hours after removing the feed.
(§3) After fasting the test animal for at least 12 hours and anesthetizing with diethyl ether, blood, liver and visceral fat (epididymal fat, perirenal fat, mesenteric fat and retroperitoneal fat) were taken and weighed after washing with 0.1 M PBS (pH 7.4). Blood taken from the abdominal aorta was centrifuged at 1000×g for 15 minutes for the separation of plasma.

[2] = Plasma lipid and glucose levels in high-fat diet fed mice; format: in vivo, mouse; settings: SPID group, 10 weeks
Procedure: as §1, §2, §3
(§4) After 10 weeks of breeding, total cholesterol, HDL-cholesterol, triglyceride and glucose levels in the plasma and lipid levels in the liver tissue were measured as follows: Total cholesterol, HDL-cholesterol, triglyceride, free fatty acid and glucose levels in the plasma were measured twice for each using a commercially available kit (Bio Clinical System). The level of LDL+VLDL in plasma was calculated by subtracting HDL level from the total cholesterol level. The activities of ALT (alanine aminotransferase) and AST (aspartate aminotransferase) used as liver function indicator were measured using a commercially available kit (Bio Clinical System, Korea).

[3] = Liver weight and liver tissue lipid levels in high-fat diet fed mice; format: in vivo, mouse; settings: SPID group, 10 weeks
Procedure: as §1, §2, §3
In addition, lipids were extracted from the liver tissue according to Folch et al.'s method (Folch J, Lees M, Sloane Stanley G H. A simple method for the isolation and purification of total lipides from animal tissues. J Biol. Chem. 1957; 226:497-509). After adding 1 mL of distilled water to 0.25 g of the liver tissue, the liver tissue was homogenized using a Polytron homogenizer (IKA-Werke GmbH & Co., Ultra-Turrax, Staufen, Germany). After adding 5 mL of chloroform:methanol solution (2:1, v/v) to the homogenate and mixing well, the mixture was centrifuged at 1000×g for 10 minutes. After adding 2 mL of chloroform:methanol solution (2:1, v/v) again to the supernatant, the same procedure was repeated to completely separate the lipid components of the liver. After adding 3 mL of chloroform:methanol:0.05% CaCl2 (3:48:47, v/v/v) solution to the remaining pellets and mixing well for 1 minute, followed by centrifugation at 1000×g for 10 minutes, the resulting pellets were completely dried with nitrogen gas. The dried lipids were dissolved in 1 mL of methanol and then analyzed. The commercially available kits (Bio Clinical System, Korea) were used to measure the levels of triglyceride, cholesterol and free fatty acids of the liver tissue.

[4] = ALT and AST activities (liver function indicators) in high-fat diet fed mice; format: in vivo, mouse; settings: SPID group, 10 weeks
Procedure: as §1, §2, §3, §4

C/EBPα = assay: RT-PCR of C/EBPα mRNA in epididymal fat tissue; format: in vivo, mouse; settings: SPID vs HFD, relative to GAPDH, FIG. 4
Procedure: (§5) Accordingly, to identify that scopolin inhibits directly obesity-related gene expressions, the inventors examined whether obesity-related gene is expressed according to scopolin treatment through RNA was isolated from epididymal fat tissues obtained in the example 3 and performed RT-PCR.
(§6) First, after adding 1 mL of Trizol agent per 0.1 g of epididymal fat tissues, the mixture was homogenized and centrifuged at 12,000×g for 10 min at 4° C. The supernatant was transferred to a new tube and 200 μl of chloroform was added to the tube, followed by vortexing. The same procedure was repeated twice and then the supernatant was transferred to a new tube, followed by addition of isopropanol and the supernatant at 1:1 ratio. The mixture was vigorously shaken 10 times and then incubated for 10 min at room temperature, followed by centrifugation at 12,000×g for 10 min at 4° C. to remove the supernatant. After adding 1 mL of 70% ethanol to the remaining pellet, it was centrifuged at 7,500×g for 5 min at 4° C. After removing the ethanol, the RNA pellet contained in the tube was dried for 5 min at 4° C. and dissolved in nuclease-free water. The RNA concentration of sample was measured at a wavelength of 260 nm and 280 nm using a UV/VIS spectrophotometer (Beckman coulter, DU730) and the integrity of RNA sample was verified by agarose gel electrophoresis. […]

PPARγ2 = assay: RT-PCR of PPARγ2 mRNA in epididymal fat tissue; format: in vivo, mouse; settings: SPID vs HFD, relative to GAPDH, FIG. 4
Procedure: as §5, §6

aP2 = assay: RT-PCR of aP2 mRNA in epididymal fat tissue; format: in vivo, mouse; settings: SPID vs HFD, relative to GAPDH, FIG. 4
Procedure: as §5, §6

UCP1 = assay: RT-PCR of UCP1 mRNA in epididymal fat tissue; format: in vivo, mouse; settings: HFD-induced decrease, relative to GAPDH, FIG. 5
Procedure: as §5, §6

UCP3 = assay: RT-PCR of UCP3 mRNA in epididymal fat tissue; format: in vivo, mouse; settings: HFD-induced decrease, relative to GAPDH, FIG. 5
Procedure: as §5, §6

[5] = tested on: mouse intraperitoneal macrophages; settings: macrophages stimulated with ionophore; J Nat Prod 1996; cited from earlier work
acetylcholine esterase = acetylcholine esterase (Homo sapiens, UniProt P22303); settings: J Med Chem 2004; cited from earlier work
acetylcholine esterase, sequence (P22303 32-614): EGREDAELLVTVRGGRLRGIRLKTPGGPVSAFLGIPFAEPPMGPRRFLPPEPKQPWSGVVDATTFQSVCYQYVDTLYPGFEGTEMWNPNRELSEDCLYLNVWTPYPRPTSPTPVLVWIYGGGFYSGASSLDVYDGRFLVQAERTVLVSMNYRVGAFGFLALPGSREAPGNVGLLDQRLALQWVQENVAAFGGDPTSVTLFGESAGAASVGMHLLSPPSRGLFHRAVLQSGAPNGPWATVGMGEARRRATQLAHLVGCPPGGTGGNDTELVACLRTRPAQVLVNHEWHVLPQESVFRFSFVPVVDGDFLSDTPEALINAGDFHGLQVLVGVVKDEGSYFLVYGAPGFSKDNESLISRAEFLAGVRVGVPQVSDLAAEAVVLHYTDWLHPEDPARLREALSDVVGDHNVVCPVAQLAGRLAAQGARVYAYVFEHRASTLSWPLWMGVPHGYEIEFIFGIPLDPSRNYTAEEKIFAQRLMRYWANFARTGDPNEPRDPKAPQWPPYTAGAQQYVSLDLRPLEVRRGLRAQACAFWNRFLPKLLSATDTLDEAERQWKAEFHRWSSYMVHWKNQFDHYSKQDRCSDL

In the case of `COc1cc2ccc(=O)oc2cc1OC1OC(CO)C(O)C(O)C1O` [scopolin, 7-(beta-D-glucopyranosoyloxy)-6-methoxy-2H-1-benzopyran-2-one], the “differentiation of the preadipocytes (Oil Red O staining)” value (3T3-L1 cells) is reported as “reduced the differentiation of the preadipocytes in a concentration-dependent manner”, the “decrease of cumulative body weight gain as compared to HFD” value [1] is reported as 22% and the “decrease of final body weight as compared to HFD” value [1] is reported as 10%. The “reduction of epididymal fat-pad weight as compared to HFD” value [1] was 29%, the “reduction of mesenteric fat-pad weight as compared to HFD” value [1] was 28% and the “reduction of perirenal fat-pad weight as compared to HFD” value [1] was 33%. The “reduction of retroperitoneal fat-pad weight as compared to HFD” value [1] was 31%, the “reduction of total visceral fat weight as compared to HFD” value [1] was 30% and the “lower plasma level of LDL+VLDL cholesterol as compared to HFD” value [2] was 30%. The “lower plasma level of free fatty acid as compared to HFD” value [2] was 27%, the “lower plasma level of total cholesterol as compared to HFD” value [2] was 23% and the “lower plasma level of triglyceride as compared to HFD” value [2] was 28%. The “reduction of the fasting blood sugar level as compared to HFD” value [2] was 16%, the Free fatty acid ([2]; plasma, mean±SEM, n=8) was 635 ± 65.6^b μEq/g and the Total cholesterol ([2]; plasma, mean±SEM, n=8) was 5.07 ± 0.26^b mmol/l. For the same compound, the Triglyceride ([2]; plasma, mean±SEM, n=8) was 0.65 ± 0.07^b mmol/l, the “LDL + VLDL cholesterol” value ([2]; plasma, total cholesterol minus HDL) was 3.88 ± 0.27^b mmol/l and the Glucose ([2]; plasma, fasting, mean±SEM, n=8) was 7.51 ± 0.32^b mmol/l. For the same compound, the “decrease of cholesterol in liver tissue as compared to HFD” value [3] was 21%, the “decrease of free fatty acid in liver tissue as compared to HFD” value [3] was 33% and the “decrease of triglyceride in liver tissue as compared to HFD” value [3] was 22%. For the same compound, the “reduction of absolute weight of liver as compared to HFD” value [3] was 23%, the Liver weight ([3]; mean±SEM, n=8) was 1.7 ± 0.14^b g and the Cholesterol ([3]; liver tissue, mean±SEM, n=8) was 102.9 ± 5.4^b μmol/g. The Free fatty acid ([3]; liver tissue, mean±SEM, n=8) was 33.6 ± 4.6^b μEq/g, the Triglyceride ([3]; liver tissue, mean±SEM, n=8) was 55.6 ± 5.3^b μmol/g and the “decrease of plasma activity of ALT as compared to HFD” value [4] was 46%. The “decrease of plasma activity of AST as compared to HFD” value [4] was 41%, the “ALT (alanine aminotransferase)” value ([4]; plasma activity, mean±SEM, n=8) was 5.55 ± 0.78^b IU/L and the “AST (aspartate aminotransferase)” value ([4]; plasma activity, mean±SEM, n=8) was 5.80 ± 0.43 IU/L. For the same compound, the “C/EBPα mRNA expression level” value (C/EBPα) was “significantly reduced expressions”, the “PPARγ2 mRNA expression level” value (PPARγ2) was “significantly reduced expressions” and the “aP2 mRNA expression level” value (aP2) was “significantly reduced expressions”. The “UCP1 mRNA expression level” value (UCP1) was “significantly reversed”, the “UCP3 mRNA expression level” value (UCP3) was “significantly reversed” and the eicosanoid release [5] was “suppression of eicosanoid release”. For the same compound, the acetylcholine esterase inhibition (acetylcholine esterase) was “inhibits acetylcholine esterase”.
